The record followed here is patent US10399980B2, “Purinones as ubiquitin-specific protease 1 inhibitors” (FORMA Therapeutics, Inc., priority 2015, dated 2019).

Some results are limits rather than exact numbers.

The target in the experiment is USP1, construct USP1 (1-785, GG670, 671AA)/UAF1 (1-677)-Flag (Homo sapiens (Human), UniProt O94782, G670A/G671A). The experiment can be described thus: Ubiquitin-Rhodamine 110 assay for USP1 activity, follow-up IC50 studies. Type of experiment: biochemical. Conditions: USP1/UAF1, 30 min preincubation. The method, then: Example 53: Ubitquin-Rhodamine 110 Assay for USP1 Activity
Chain of USP1, construct USP1 (1-785, GG670, 671AA)/UAF1 (1-677)-Flag (O94782 whole entry G670A/G671A): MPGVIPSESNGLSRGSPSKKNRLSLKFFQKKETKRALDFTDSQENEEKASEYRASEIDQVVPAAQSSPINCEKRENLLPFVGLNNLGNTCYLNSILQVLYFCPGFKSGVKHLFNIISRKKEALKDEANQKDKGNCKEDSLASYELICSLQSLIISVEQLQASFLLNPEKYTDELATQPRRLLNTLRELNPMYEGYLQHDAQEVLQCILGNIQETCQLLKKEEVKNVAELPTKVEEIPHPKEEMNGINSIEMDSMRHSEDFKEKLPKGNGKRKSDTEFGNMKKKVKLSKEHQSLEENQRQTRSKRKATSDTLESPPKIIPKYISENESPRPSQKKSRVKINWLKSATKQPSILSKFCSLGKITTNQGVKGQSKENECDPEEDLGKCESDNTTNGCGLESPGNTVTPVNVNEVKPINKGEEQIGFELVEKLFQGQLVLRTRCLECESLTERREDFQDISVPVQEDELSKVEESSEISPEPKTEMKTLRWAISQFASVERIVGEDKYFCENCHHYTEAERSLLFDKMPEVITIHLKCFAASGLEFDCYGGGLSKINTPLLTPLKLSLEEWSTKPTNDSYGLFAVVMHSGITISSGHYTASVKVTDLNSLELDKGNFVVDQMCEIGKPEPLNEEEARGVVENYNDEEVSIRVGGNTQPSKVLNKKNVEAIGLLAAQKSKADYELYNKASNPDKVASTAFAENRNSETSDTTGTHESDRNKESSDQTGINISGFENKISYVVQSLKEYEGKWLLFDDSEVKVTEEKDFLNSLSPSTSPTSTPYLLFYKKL
Chain of USP1, construct USP1 (1-785, GG670, 671AA)/UAF1 (1-677)-Flag (Q8TAF3 whole entry partner): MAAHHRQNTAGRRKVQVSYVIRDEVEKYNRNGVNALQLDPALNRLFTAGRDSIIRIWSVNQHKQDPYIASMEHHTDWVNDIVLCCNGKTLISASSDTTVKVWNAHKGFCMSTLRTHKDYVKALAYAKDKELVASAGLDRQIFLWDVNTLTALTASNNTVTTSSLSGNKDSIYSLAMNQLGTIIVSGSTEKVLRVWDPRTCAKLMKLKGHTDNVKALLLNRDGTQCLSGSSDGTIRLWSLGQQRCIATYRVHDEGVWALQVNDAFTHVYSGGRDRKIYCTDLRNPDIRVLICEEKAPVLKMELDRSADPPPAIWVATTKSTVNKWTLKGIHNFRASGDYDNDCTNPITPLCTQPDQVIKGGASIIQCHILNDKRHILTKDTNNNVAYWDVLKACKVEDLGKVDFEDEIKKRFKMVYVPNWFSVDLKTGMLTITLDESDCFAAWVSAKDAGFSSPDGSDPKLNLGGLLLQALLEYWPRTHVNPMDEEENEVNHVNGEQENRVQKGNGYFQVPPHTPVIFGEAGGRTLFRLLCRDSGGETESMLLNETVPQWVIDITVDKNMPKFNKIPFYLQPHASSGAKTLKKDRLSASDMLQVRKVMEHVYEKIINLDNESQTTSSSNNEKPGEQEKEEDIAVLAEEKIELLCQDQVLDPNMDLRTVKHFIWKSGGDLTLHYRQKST
Nanoliter quantities of either an 8-point or 10-point, 3-fold serial dilution in DMSO was pre-dispensed into assay plates (Perkin Elmer, ProxiPlate-384 F Plus, #6008269) for a final test concentration range of either 25 μM to 11 nM or 25 μM to 1.3 nM, respectively. The final concentration of the enzyme (USP1, construct USP1 (1-785, GG670, 671AA)/UAF1 (1-677)-Flag; Viva) in the assay was 25 pM. Final substrate (Ub-Rh110; Ubiquitin-Rhodamine 110, R&D Systems #U-555) concentration was 25 nM with [Ub-Rh110]<<Km. […] Plates were incubated stacked for 20 minutes at room temperature before 5 μL of stop solution (final concentration of 10 mM citric acid in assay buffer (Sigma, #251275-500G)). Fluorescence was read on the Envision (Excitation at 485 nm and Emission at 535 nm; Perkin Elmer) or on the PheraSTAR (Excitation at 485 nm and Emission at 535 nm; BMG Labtech).
For both assay formats data were reported as percent inhibition compared with control wells based on the following equation: % inh=[1−((FLU−AveLow)/(AveHigh−AveLow))]×100 where FLU=measured Fluorescence, AveLow=average Fluorescence of no enzyme control (n=16), and AveHigh=average Fluorescence of DMSO control (n=16). IC50 values were determined by curve fitting of the standard 4 parameter logistic fitting algorithm included in the Activity Base software package: IDBS XE Designer Model205. Data is fitted using the Levenburg Marquardt algorithm.
The compound `Cc1cc(C)n([C@H]2CC[C@@H](Cn3c(=O)n(C)c4cnc(-c5ccccc5C(C)C)nc43)CC2)n1` [I-111, 9-(((1s,4s)-4-(3,5-dimethyl-1H-pyrazol-1-yl)cyclohexyl)methyl)-2-(2-isopropylphenyl)-7-methyl-7,9-dihydro-8H-purin-8-one] had a concentration for half-maximal inhibition (IC50) of 0.05 to 0.2 µM.
Compound `Cn1cc(C(F)(F)F)nc1-c1ccc(Cn2c(=O)n(C)c3cnc(-c4ccccc4C4CC4)nc32)cc1` [I-70, 2-(2-cyclopropylphenyl)-7-methyl-9-(4-(1-methyl-4-(trifluoromethyl)-1H-imidazol-2-yl)benzyl)-7,9-dihydro-8H-purin-8-one] had an IC50 below 0.05 µM.
`Cc1cc(C)n([C@H]2CC[C@H](Cn3c(=O)[nH]c4cnc(-c5ccccc5C(C)C)nc43)CC2)n1` [I-213, 9-(((1r,4r)-4-(3,5-dimethyl-1H-pyrazol-1-yl)cyclohexyl)methyl)-2-(2-isopropylphenyl)-7,9-dihydro-8H-purin-8-one] gave an IC50 of 0.2 to 2 µM.
